In patent US8252806B2, “Potassium channel modulating agents and their medical use” (Neurosearch A/S, priority 2005, dated 2012):

Key:
[1] = biological target: T1, small-conductance Ca2+-activated K+ channel, subtype 3 (SK3) (Homo sapiens, UniProt Q9UGI6); assay: Whole-cell patch-clamp recording of SK3 current in HEK293 cells stably expressing hSK3; format: cell-based; settings: baseline current at -20 mV, 300 nM free Ca2+
T1 construct: expressed in transfected cells; host or cells: HEK293 cells stably transfected with pNS3_hSK3
Procedure: The ionic current through small-conductance Ca^2+-activated K^+ channels (SK channels, subtype 3) is recorded using the whole-cell configuration of the patch-clamp technique.
The small-conductance Ca^2+-activated K^+ channel, subtype 3 (SK3) was cloned from human skeletal muscle and stably expressed in HEK293 cells.
Human SK3 (hSK3) was sub-cloned into the expression vector pNS3n, a customized vector derived from pcDNA3 (InVitrogen) to give the plasmid construct pNS3_hSK3. HEK293 tissue culture cells were grown in DMEM (Dulbecco's Modified Eagle Medium) supplemented with 10% FCS (foetal calf serum) at 37° C. in 5% CO2. […]
Experiments are carried out on one of several patch-clamp set-ups. […] Data are stored directly on the hard-disk and analysed by IGOR software (Wavemetrics, Lake Oswega, Oreg., USA).
The whole-cell configuration of the patch-clamp technique is applied. […] Cell capacitance is electronically compensated and the resistance between the pipette and the cell interior (the series resistance, Rs) is measured and compensated for. […]
The intracellular (pipette) solution has the following composition (in mM): 105 KCl, 45 KOH, 10 EGTA, 1.21 MgCl2, 7.63 CaCl2, and 10 HEPES (pH=7.2 with HCl). The calculated free concentration of Ca^2+ in this solution is 300 nM and that of Mg^2+ is 1 mM. […]
Active compounds are quantified by calculating the change in baseline current at −20 mV. […]

| SMILES | SC100 (Stimulating Concentration required for increasing the baseline current by 100%) [1] | melting point |
| --- | --- | --- |
| Cc1cc(C)n(-c2nc(NC3CCCCC3)c3ccccc3n2)n1 [Compound A8, Cyclohexyl-[2-(3,5-dimethyl-pyrazol-1-yl)-quinazolin-4-yl]-amine] | 0.035 µM | – |
| Cc1cc(C)n(-c2nc(Nc3ccccc3)c3ccccc3n2)n1 [Compound B1, [2-(3,5-Dimethyl-pyrazol-1-yl)-quinazolin-4-yl]-phenyl-amine] | – | 262.4 to 265.3 °C |
